Results taken from US6500858B2, “Taxoid anti-tumor agents and pharmaceutical compositions thereof” (The Research Foundation of the state University of New York, priority 1994, dated 2002).

Test: cytotoxicity of C-3′ modified docetaxel analog (cell line not clearly stated)
Assay type: cell-based
Settings: compared with isobutenyl group of RAH-1

CC(=O)OC12COC1CC(O)C1(C)C(=O)C(O)C3=C(C)C(OC(=O)C(O)C(C=Cc4ccccc4)NC(=O)OC(C)(C)C)CC(O)(C(OC(=O)c4ccccc4)C21)C3(C)C (stereo not shown) [3′-dephenyl-3′-(2-phenylethenyl)docetaxel]
decrease in cytotoxicity: > 20 times
